{"source": "patent US10681909B2", "about": "“Herbicidal triazoles” (FMC Corporation, priority 2014, dated 2020)", "key": {"kochia": {"tested_on": "kochia", "experiment": "Test A preemergence", "type": "in vivo, Kochia scoparia", "conditions": "0 to 100 scale (0 no effect, 100 complete control)", "summary_of_the_method": "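Visual injury score, 0 (no effect) to 100 (complete control), taken about 10 d after treatment against untreated greenhouse controls. Chemicals formulated in non-phytotoxic solvent plus surfactant; preemergence by directed soil spray onto sown loam/sand, postemergence onto one- to two-leaf plants.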"}, "blackgrass": {"tested_on": "blackgrass", "experiment": "Test C preemergence", "type": "in vivo, Alopecurus myosuroides", "conditions": "for Plant response rating (scale of 0 to 100 where 0 is no effect and 100 is complete control): Blackgrass, preemergence; for Blackgrass plant response rating (0 to 100): Preemergence, visual rating after 13 to 15 d", "source_text": "Seeds of plant species selected from blackgrass (Alopecurus myosuroides), ryegrass, Italian (Italian ryegrass, Lolium multiflorum), wheat (winter wheat, Triticum aestivum), galium (catchweed bedstraw, Galium aparine), corn (Zea mays), crabgrass, large (large crabgrass, Digitaria sanguinalis), foxtail, giant, (giant foxtail, Setaria faberii), johnsongrass (Sorghum halepense), lambsquarters (Chenopodium album), morningglory (Ipomoea coccinea), nutsedge, yellow (yellow nutsedge, Cyperus esculentus), pigweed (Amaranthus retroflexus), ragweed (common ragweed, Ambrosia elatior), soybean (Glycine max), barnyardgrass (Echinochloa crus-galli), oilseed rape (Brassica napus), waterhemp (common waterhemp, Amaranthus rudis), and velvetleaf (Abutilon theophrasti) were planted into a blend of loam soil and sand and treated preemergence with test chemicals formulated in a non-phytotoxic solvent mixture which included a surfactant. At the same time, plants selected from these crop and weed species and also chickweed (common chickweed, Stellaria media), oat, wild (wild oat, Avena fatua), and kochia (Kochia scoparia), were planted in pots containing Sunshine Redi-Earth® planting medium comprising spaghnum peat moss, vermiculite, starter nutrients and dolomitic limestone and treated with postemergence applications of test chemicals formulated in the same manner. Plants ranged in height from 2 to 18 cm (1- to 4-leaf stage) for postemergence treatments. […] A dash (-) response means no test result."}, "oilseed rape": {"tested_on": "oilseed rape", "experiment": "Test D preemergence", "type": "in vivo, Brassica napus", "conditions": "for Plant response rating: Oilseed Rape: scale 0 to 100", "source_text": "(§1) Seeds of plant species selected from bluegrass (annual bluegrass, Poa annua), blackgrass (Alopecurus myosuroides), canarygrass (Phalaris minor), chickweed (common chickweed, Stellaria media), galium (catchweed bedstraw, Galium aparine), bromegrass, down (downy bromegrass, Bromus tectorum), Russian thistle (Salsola kali), field poppy (Papaver rhoeas), field violet (Viola arvensis), foxtail, green (green foxtail, Setaria viridis), deadnettle (henbit deadnettle, Lamium amplexicaule), ryegrass, Ital. (Italian ryegrass, Lolium multiflorum), kochia (Kochia scoparia), lambsquarters (Chenopodium album), oilseed rape (Brassica napus), pigweed (Amaranthus retroflexus), chamomile (scentless chamomile, Matricaria inodora), speedwell (bird's-eye speedwell, Veronica persica), barley, spring (spring barley, Hordeum vulgare), wheat, spring (spring wheat, Triticum aestivum), buckwheat, wild (wild buckwheat, Polygonum convolvulus), wild mustard (Sinapis arvensis), oat, wild (wild oat, Avena fatua), radish, wild (wild radish, Raphanus raphanistrum), […]), barley, winter (winter barley, Hordeum vulgare), and wheat, winter (winter wheat, Triticum aestivum) were planted into a silt loam soil and treated preemergence with test chemicals formulated in a non-phytotoxic solvent mixture which included a surfactant. At the same time, these species were planted in pots containing Sunshine Redi-Earth® planting medium comprising spaghnum peat moss, vermiculite, starter nutrients and dolomitic limestone and treated with postemergence applications of the test chemicals formulated in the same manner. Plants ranged in height from 2 to 18 cm (1- to 4-leaf stage). Treated plants and controls were maintained in a controlled growth environment for 14 to 21 d after which time all species were compared to controls and visually evaluated. […] A dash (-) response means no test result."}, "barley, spring": {"tested_on": "barley, spring", "experiment": "Test D preemergence", "type": "in vivo, Hordeum vulgare", "conditions": "for Plant response rating: Barley, Spring: scale 0 to 100", "source_text": "as §1"}, "barley, winter": {"tested_on": "barley, winter", "experiment": "Test D preemergence", "type": "in vivo, Hordeum vulgare", "conditions": "for Plant response rating: Barley, Winter: scale 0 to 100", "source_text": "as §1"}, "oat, wild": {"tested_on": "oat, wild", "experiment": "Test D preemergence", "type": "in vivo, Avena fatua", "conditions": "for Plant response rating: Oat, Wild: scale 0 to 100", "source_text": "as §1"}, "windgrass": {"tested_on": "windgrass", "experiment": "Test D preemergence", "type": "in vivo, Apera spica-venti", "conditions": "for Plant response rating: Windgrass: scale 0 to 100", "source_text": "as §1"}, "Russian thistle": {"tested_on": "Russian thistle", "experiment": "Test D postemergence", "type": "in vivo, Salsola kali", "conditions": "scale 0 to 100", "source_text": "as §1"}, "field violet": {"tested_on": "field violet", "experiment": "Test D postemergence", "type": "in vivo, Viola arvensis", "conditions": "scale 0 to 100", "source_text": "as §1"}, "[1]": {"conditions": "16 g ai/ha, 0 is no effect, 100 is complete control"}}}
{"smiles": "CCOc1nc(-c2ccc(C(F)(F)F)cc2)nn1Cc1ccnc(C(F)(F)F)c1", "note": "[Compound 35, 4-[[5-ethoxy-3-[4-(trifluoromethyl)phenyl]-1H-1,2,4-triazole-1-yl]methyl]-2-(trifluoromethyl)pyridine]", "values": [{"measurement": "Plant response rating, Kochia", "setting": "kochia; 31 g ai/ha", "value": 90}, {"measurement": "Plant response rating, Kochia", "setting": "kochia; 125 g ai/ha", "value": 90}, {"measurement": "Plant response rating (scale of 0 to 100 where 0 is no effect and 100 is complete control)", "setting": "blackgrass; 125 g ai/ha", "value": 90}, {"measurement": "Plant response rating (scale of 0 to 100 where 0 is no effect and 100 is complete control)", "setting": "blackgrass; 250 g ai/ha", "value": 90}, {"measurement": "Blackgrass plant response rating (0 to 100)", "setting": "blackgrass; 31 g ai/ha", "value": 90}, {"measurement": "Blackgrass plant response rating (0 to 100)", "setting": "blackgrass; 62 g ai/ha", "value": 85}, {"measurement": "Plant response rating (0 to 100), Oilseed Rape", "setting": "oilseed rape; [1]", "value": 25}, {"measurement": "Plant response rating: Oilseed Rape", "setting": "oilseed rape; 62 g ai/ha", "value": 40}, {"measurement": "Plant response rating: Oilseed Rape", "setting": "oilseed rape; 125 g ai/ha", "value": 100}, {"measurement": "Plant response rating (0 to 100), Barley, Spring", "setting": "barley, spring; [1]", "value": 30}, {"measurement": "Plant response rating: Barley, Spring", "setting": "barley, spring; 31 g ai/ha", "value": 40}, {"measurement": "Plant response rating: Barley, Spring", "setting": "barley, spring; 62 g ai/ha", "value": 40}, {"measurement": "Plant response rating: Barley, Spring", "setting": "barley, spring; 125 g ai/ha", "value": 50}, {"measurement": "Plant response rating (0 to 100), Barley, Winter", "setting": "barley, winter; [1]", "value": 25}, {"measurement": "Plant response rating: Barley, Winter", "setting": "barley, winter; 31 g ai/ha", "value": 40}, {"measurement": "Plant response rating: Barley, Winter", "setting": "barley, winter; 62 g ai/ha", "value": 40}, {"measurement": "Plant response rating: Barley, Winter", "setting": "barley, winter; 125 g ai/ha", "value": 50}, {"measurement": "Plant response rating (0 to 100), Oat, Wild", "setting": "oat, wild; [1]", "value": 40}, {"measurement": "Plant response rating: Oat, Wild", "setting": "oat, wild; 62 g ai/ha", "value": 75}, {"measurement": "Plant response rating: Oat, Wild", "setting": "oat, wild; 125 g ai/ha", "value": 80}, {"measurement": "Plant response rating (0 to 100), Windgrass", "setting": "windgrass; [1]", "value": 70}, {"measurement": "Plant response rating: Windgrass", "setting": "windgrass; 62 g ai/ha", "value": 85}, {"measurement": "Plant response rating: Windgrass", "setting": "windgrass; 125 g ai/ha", "value": 100}, {"measurement": "Plant response rating: Russian Thistle", "setting": "Russian thistle; 16 g ai/ha", "value": 70}, {"measurement": "Plant response rating: Russian Thistle", "setting": "Russian thistle; 31 g ai/ha", "value": 75}, {"measurement": "Plant response rating: Russian Thistle", "setting": "Russian thistle; 62 g ai/ha", "value": 80}, {"measurement": "Plant response rating: Russian Thistle", "setting": "Russian thistle; 125 g ai/ha", "value": 85}, {"measurement": "Plant response rating: Field Violet", "setting": "field violet; 16 g ai/ha", "value": 90}, {"measurement": "Plant response rating: Field Violet", "setting": "field violet; 31 g ai/ha", "value": 100}, {"measurement": "Plant response rating: Field Violet", "setting": "field violet; 62 g ai/ha", "value": 100}, {"measurement": "Plant response rating: Field Violet", "setting": "field violet; 125 g ai/ha", "value": 100}]}
